In patent US10092492B2, “Cosmetic composition comprising spiculisporic acid and at least one surfactant” (L'OREAL, priority 2013, dated 2018):
Values joined by “and” are separate entries in the source; they are usually repeats but may differ in a detail not shown here. Equal entries are not always repeated. “Also recorded” adds a separate entry of the source.

Experiments:
[1] = Example 2: aspect and pH of S-acid pre-solubilized with KOH (R1=2) in association with surfactants; format: physicochemical; details: for pH t0 RT / pH RT, 20 days after storage / pH T = 4° C., 20 days after storage: KOH R1=2
Source text: Solutions, containing S-acid at 4% or 8% (neutralized with an amount of KOH calculated in order to obtain the di-potassium salt of S-acid, i.e., R1=2) and surfactants, were made.

[2] = Example 1: pH and aspect of S-acid solutions neutralized with NaOH (30%) or KOH (50%), stabilized at 4° C. and RT; format: physicochemical; design: key to aspect of the solution (precipitation mark): The marked solutions (*) correspond to precipitated solutions; details: for pH T4° C. 24 h / pH T4° C. 30 days / pH TRT 24 h / pH TRT 30 days / pH TRT t0: R1=2
Source text: In order to neutralize spiculisporic acid (S-acid), two moles of base were used for one mole of S-acid, i.e., R1=2.
Increasing concentration ranges of S-acid from 1% to 10% were achieved, either with NaOH (solution at 30% m/m), or with KOH (solution at 50% m/m).
The solutions were made twice (A and B) in order to evaluate the reproducibility of the results. All the ranges of the neutralized solutions with both bases are limpid at t0 and the pH values obtained range from 5.19 to 6.79.
The marked solutions (*) correspond to precipitated solutions.

[3] = cited from earlier work
[4] = Example 2: pH and macroscopic observation of S-acid neutralized with NaOH (R1=1.1) with surfactants, stored at 4° C.; format: physicochemical; details: for Macroscopic observation after 12 days after storage: stored in the dark at 4° C., listed as S-acid alone
Method: Solutions, containing S-acid at 4% or 8% (neutralized with an amount of NaOH calculated in order to obtain R1=1.1) and surfactants, were made, as shown in the table below:
The solutions were prepared according to the following procedure:
S-acid aqueous solution is prepared. The base is added under stirring. The resulting mixture is stirred at 40° C. Then the surfactant is added under stirring. The solution is then stored in the dark at 4° C.

[5] = S-acid 4% MA, surfactant 4% where present
[6] = KOH solution at 50%, S-acid 1%, A and B
[7] = KOH solution at 50%, S-acid 2%, A and B
[8] = NaOH solution at 30%, S-acid 1%, A and B
[9] = NaOH solution at 30%, S-acid 2%, A and B

## CCCCCCCCCCC(C(=O)O)C1(C(=O)O)CCC(=O)O1 (centres unmarked) [S-acid, 4,5-dicarboxy-4-pentadecanolide]
[1]; S-acid 4% MA, surfactant 4% active material where present
  pH t0 RT: 5.97
[1]; [5]
  pH RT, 20 days after storage: 6.02
  pH T = 4° C., 20 days after storage: 6.01
[1]; S-acid 4%, KOH R1=2, surfactant 4% where present
  result after 20 days of storage at 4° C. (in words): precipitation
[1]; S-acid 8% MA, no surfactant
  pH RT, 20 days after storage: 6.47
  pH T = 4° C., 20 days after storage: 6.47
  pH t0 RT: 6.43
[1]; S-acid 8%, KOH R1=2, no surfactant
  result after 20 days of storage at 4° C. (in words): precipitation
[2]; [6]
  pH T4° C. 24 h: 6.09 and 5.26
  pH T4° C. 30 days: 5.86 and 5.39
  pH TRT 24 h: 6.03 and 5.28
  pH TRT 30 days: 5.69 and 5.18
  pH TRT t0: 5.93 and 5.22
[2]; [7]
  pH T4° C. 24 h: 5.48 and 5.61
  pH T4° C. 30 days: 5.46 and 5.53
  pH TRT 24 h: 5.67 and 5.59
  pH TRT 30 days: 5.39 and 5.59
  pH TRT t0: 5.4 and 5.19
[2]; KOH, S-acid 2%, 4° C. 24 h
  aspect of the solution (precipitation mark): *
[2]; KOH, S-acid 2%, 4° C. 30 days
  aspect of the solution (precipitation mark): *
[2]; KOH, S-acid 2%, RT 24 h
  aspect of the solution (precipitation mark): *
[2]; KOH, S-acid 2%, RT 30 days
  aspect of the solution (precipitation mark): *
[2]; [8]
  pH T4° C. 24 h: 5.78 and 5.49
  pH T4° C. 30 days: 5.69 and 5.41
  pH TRT 24 h: 5.78 and 5.49
  pH TRT 30 days: 5.59 and 5.42
[2]; NaOH solution at 30%, S-acid 1%, duplicate solutions A and B
  pH TRT t0: 5.66 and 5.37
[2]; [9]
  pH T4° C. 24 h: 5.7 and 5.78
  pH T4° C. 30 days: 5.72 and 5.69
  pH TRT 24 h: 5.7 and 5.74
  pH TRT 30 days: 5.64 and 5.49
[2]; NaOH solution at 30%, S-acid 2%, duplicate solutions A and B
  pH TRT t0: 5.64 and 5.6
[2]; NaOH, S-acid 2%, 4° C. 24 h
  aspect of the solution (precipitation mark): *
[2]; NaOH, S-acid 2%, 4° C. 30 days
  aspect of the solution (precipitation mark): *
[2]; NaOH, S-acid 2%, RT 30 days
  aspect of the solution (precipitation mark): *
[2]; from 2% of S-acid, both bases (NaOH, KOH)
  stability of the solutions after 30 days at 4° C.: crystallization
[3]; high temperature
  solubility in water at a high temperature: partly soluble
[3]; room temperature
  solubility in ethanol: soluble
  solubility in fats: insoluble
  solubility in water: insoluble
[4]; S-acid 4% MA, NaOH R1=1.1
  pH t0 RT: 4.89
  Macroscopic observation after 12 days after storage: precipitation; also recorded: precipitate
[4]; S-acid 8% MA, NaOH
  pH t0 RT: 5.11
  Macroscopic observation after 12 days after storage: precipitation; also recorded: precipitate
